Results reported in patent publication US20240130988A1, “Use of stilbene compounds in the preparation of anti-tumor drugs” (Guangzhou AnHao Pharmaceutical Technology CO., LTD., priority 2022, published 2024).
Marks after values point to notes of the source that are not given here.

Legend:
[1] = test system: human prostate cell LNCaP; assay: Human prostate cell LNCaP transplanted tumor in nude mice; type: in vivo, BALB/C nude mice
Method: A human prostate cell LNCaP model transplanted into nude mice was used in the experiment to investigate the anti-tumor effect of test compounds.
(§1) Preparation: The compound was prepared as the injection at the desired concentration with sterile normal saline, prior to administration.
(§2) Animal strain: BALB/C nude mice (SPF grade), weight: 19-21 g, gender: male.
(§3) Number of animals in each treatment group: 8; number of animals in the control group: >12.
(§4) The tumor blocks of human prostate cell LNCaP with good growth were cut into uniform small pieces of 3 mm under sterile conditions, and then subcutaneously inoculated into the right armpit of each mouse with a cannula. The mice were divided into 9 groups, 8 mice for each treatment group, while >12 mice were included in the control group,
(§5) 14 days after inoculation, the average volume of the tumor block was about 100 mm^3. The animals were regrouped based on the size of the tumor, and the animals with tumors that were too large and too small were sifted out, For each group, the average volume of tumors was basically the same, and then the mice were initially treated with test compounds. The mice were intraperitoneally injected once a day for 14 days, at a dosage of 0.2 mL/20 g body weight; the mice in the control group were given the same volume of sterile normal saline. From the 14th day of inoculation, the long diameter a (mm) of the tumor, together with the perpendicular short diameter b (mm), was measured using a digital electronic caliper, twice a week. The calculation formula of tumor volume is: TV=ab^2/2, and the formula for calculating the relative tumor volume is: RTV=Vt/Vb, wherein Vo denotes the tumor volume measured when the mice were divided into groups (i.e. d1), and Vt denotes the tumor volume from each measurement.
(§6) The result determination is based on the following formula: […]

[2] = test system: human gastric cancer MGC803; assay: Human gastric cancer MGC803 transplanted tumor in nude mice; type: in vivo, BALB/C nude mice; details: MGC803, 200 mg/kg ip × 14
Method: A human gastric cancer MGC803 model transplanted into nude mice was used in the experiment to investigate the anti-tumor effect of test compounds.
as §1, §2, §3
as §4, with “human gastric cancer MGC803” for “human prostate cell LNCaP”, “cannula. These” for “cannula. The”, “while more than 12” for “while >12”, “control group.” for “control group,”
as §5, with “sifted out.” for “sifted out,”, “body weight.” for “body weight; the mice in the control group were given the same volume of sterile normal saline.”, “volume is RTV=Vt/Vo,” for “volume is: RTV=Vt/Vb,”, “into groups(i.e.” for “into groups (i.e.”, “Vt is” for “Vt denotes”
as §6

[3] = test system: nonfusion human umbilical vein endothelial cells (HUVEC); assay: TMT quantitative proteomics on nonfusion HUVEC; type: cell-based; details: 10 μM; for Differentially expressed proteins: more than 1.5 times or less than 0.67 times vs control; for Down-regulation / Up-regulation: number of proteins
Method: Nonfusion human umbilical vein endothelial cells (HUVEC) were used to simulate new tumor blood vessels, while confluent HUVECs were used to simulate normal blood vessels, to construct experimental models. Two different HUVECs were treated with the compound at the same dosage of 10 μM, to simulate the fusion cell state, and proteome samples were prepared. After preparation of peptide segments, the segments were labelled with TMT, and a quantitative proteomics analysis was carried out. The efficiency of TMT labeling was higher than 99.4%, and a total of 28372 peptide segments from 4934 proteins were characterized using a strict 1% FDR limit. Among them, 4909 quantifiable proteins were identified, indicating reliable quality. The nonfusion treatment groups and the fusion treatment groups were compared with their respective control groups, and the control group was used as a reference, with a significant difference of more than 1.5 times or less than 0.67 times as the protein score standard.
The total cell proteins of the samples in nonfusion cell groups and fusion cell groups were extracted separately, and 2 μg of protein samples were subjected to quality analysis, The quantitative proteomics experiments were carried out, and the protein concentration assay was performed by quantitative grayscale measurement.
Data analysis: The human protein database (Scientific name: Homo sapiens, 9606) was downloaded from UniProt, MaxQuant (v 1.5.5.1) search engine was used to search for the database. A total of 4934 proteins (4909 quantitative proteins) and 28372 peptide segments were identified by TMT quantitative proteomics experiments, with a labeling efficiency of more than 99%, and the complete digestion occupied 86.3%.

| Structure (SMILES) | RTV (d 18) ([1]; 200 mg/kg ip × 14) | Tumor inhibitory rate % ([1]; 200 mg/kg ip × 14) | RTV (d 18) [2] | Tumor inhibitory rate % [2] | Differentially expressed proteins [3] | Down-regulation [3] | Up-regulation [3] | Tumor inhibitory rate % ([1]; 200 mg/kg ip × 14, 200 mg/kg) [%] | Tumor inhibitory rate % ([1]; 200 mg/kg ip × 14, listed as compound 4, 200 mg/kg) | Tumor inhibitory rate % ([2]; listed as compound 6) |
| --- | --- | --- | --- | --- | --- | --- | --- | --- | --- | --- |
| COc1ccc(/C=C(/C(=O)O)c2cc(OC)c(OC)c(OC)c2)c(O)c1O [Compound 1, (E)-3-(2,3-dihydroxy-4-methoxyphenyl)-2-(3,4,5-trimethoxylphenyl)acrylic acid] | 4.92 ± 0.82 | 56.27^## % | 5.87 ± 0.63 | 49.05^## % | 323 | 296 | 7 |  |  |  |
| COc1cc(/C=C(/C(=O)O)c2cc(OC)c(OC)c(OC)c2)cc(OC)c1 [Compound 3, (E)-3-(3,5-dimethoxyphenyl)-2-(3,4,5-trimethoxyphenyl)acrylic acid] | 4.77 ± 0.71 | 60.87^## % | 4.79 ± 0.54 | 58.42^## % | 318 | 312 | 6 |  |  |  |
| COc1ccc(/C=C(/C(=O)O)c2cc(OC)c(OC)c(OC)c2)cc1F [Compound 4, (E)-3-(3-fluoro-4-methoxyphenyl)-2-(3,4,5-trimethoxyphenyl)acrylic acid] | 3.73 ± 0.60 |  |  |  | 307 | 302 | 5 | 69.40 | best inhibitory effect on prostate cancer |  |
| COc1ccc(/C=C(/C(=O)O)c2cc(OC)c(OC)c(OC)c2)cc1O [Compound 6, (E)-3-(3-hydroxy-4-methoxyphenyl)-2-(3,4,5-trimethoxyphenyl)acrylic acid] | 4.27 ± 0.92 | 64.97^# % | 3.43 ± 0.51 | 70.23% | 312 | 307 | 5 |  |  | best inhibitory effect on gastric cancer |
| COc1cc(/C(=C\c2cc(O)c(OC)c(F)c2)C(=O)O)cc(OC)c1OC [Compound 8, (E)-3-(5-fluoro-3-hydroxy-4-methoxyphenyl)-2-(3,4,5-trimethoxyphenyl)acrylic acid] | 6.72 ± 0.85 | 44.87^## % | 4.59 ± 0.47 | 60.16^## % | 317 | 311 | 6 |  |  |  |
| COc1ccc(/C=C(/C(=O)O)c2cc(OC)c(OC)c(OC)c2)c(F)c1O [Compound 9, (E)-3-(2-fluoro-3-hydroxy-4-methoxyphenyl)-2-(3,4,5-trimethoxyphenyl)acrylic acid] |  |  |  |  | 296 | 291 | 5 |  |  |  |
| COc1cc(/C=C(/C(=O)[O-])c2cc(OC)c(OC)c(OC)c2)cc(OC)c1F.[K+] [Compound 10] | 4.55 ± 0.81 | 62.67^# % | 4.21 ± 0.58 | 63.45^# % | 315 | 309 | 6 |  |  |  |
| COc1cc(/C(=C\c2cc(O)c(OC)c(O)c2)C(=O)O)cc(OC)c1OC [Compound 11, (E)-3-(3,5-dihydroxy-4-methoxyphenyl)-2-(3,4,5-trimethoxyphenyl)acrylic acid] |  |  | 4.72 ± 0.61 | 59.03^## % | 317 | 306 | 11 |  |  |  |
